The values that follow come from US20230226198A1, “Artemisinin Derivatives” (DA ZEN THERANOSTICS, INC., priority 2019, published 2023).

For assay [1], the system named is C4-2B MDVR cells. The assay can be described thus: Annexin V / PI flow cytometry, cell death and apoptosis. Particulars: for induced cell death after pretreatment with OATP inhibitor: 2 h pretreatment with OATP inhibitor telmisartan (TMS); for induced cell death after pretreatment with Midivi or Nec-1: 2 h pretreatment with mitochondrial fission inhibitor (Midivi) or necroptosis inhibitor (Nec-1); for cell death / apoptosis (Annexin V / PI): C4-2B MDVR, e.g. 5 uM, 6 h. The format is cell-based, human. The procedure: Example 5E: Cancer cells (here C4-2B MDVR) are pretreated with OATP inhibitor telmisartan (TMS), mevalonate (MVA), Midivi (Drp-1 inhibitor), and necrostatin-1 (Nec-1) for 2 h before treatment with vehicle, DHA, DZ-003 and/or a THAD (e.g. 5 uM each) for 6 h. Cells are subjected to annexin v staining (10 ul/10^6 cells) in the dark at RT for 15-20 min followed by PI staining at 1 mg/ml to determine the apoptosis of the cells based on the PI (red) and Annexin V (green) fluorescence by flow cytometry analysis using SONY SA3800 Spectral Analyzer. […] The vehicle and DHA treated cells remain viable (lower-left quadrant; blue population indicates live cells).
(In general: A flow cytometer gives signals particle by particle.)

In assay [2] the test system is MDVR cells. The assay can be described thus: C11-BODIPY (lipid peroxidation) and MitoSox (mitochondrial ROS) flow cytometry. Particulars: 8 h. It counts as cell-based, human. The procedure:
Example 5F: Cancer cells (here MDVR) are treated with DZ1, DHA and DZ-003 for 8 h, followed by C11-BODIPY staining for 30 min at 37° C. (lipid peroxidation) or MitoSox staining for 10 min at 37° C. […] Flow cytometry analysis is performed as described in example 5E above. […] Preliminary experiments indicate that the THAD as described herein may provide a similar or increased effects.

Assay [3] has as its system Caki-1 cells (human clear cell renal cell carcinoma cells). The assay can be described thus: MTT cell viability / IC50 assay, Caki-1. It counts as cell-based. How it is done:
Cell culture: In the following examples, unless otherwise specified, all cell lines are purchased from American Type Culture Collection and cultured in American Type Culture Collection (ATCC)-recommended media, with fetal bovine serum (FBS) to a final concentration of 10% and 1× penicillin/streptomycin at 37° C. with 5% CO2 in a cell culture incubator, unless otherwise specified. Unless otherwise specified, culture is 2D. Where culture is 3D, low attachment plates are used, with the same media. C4-2B (ATCC® CRL-3315™, human prostate cancer cells of epithelial morphology) parental cell line and drug-resistant cells derived therefrom) are cultured in RPMI-1640 with 10% FBS. MDVR cells (an Enzalutamide-resistant variety of C4-2B prostate cancer cells formed as described below) are cultured as indicated for the parental C4-2B cells. Caki-1 cells (human clear cell renal cell carcinoma cells) are cultured in ATCC-formulated McCoy's 5a Medium Modified (ATCC Catalog No. 30-2007) with 10% FBS. PC3 cells (ATCC® CRL-1435™, a human prostate cancer cell line of epithelial morphology initiated from a bone metastasis of a grade IV prostatic adenocarcinoma) are cultured in F-12K with 10% FBS. 22RV1 Prostate Cancer (PC) cells (ATCC® CRL-2505™, a human prostate carcinoma cell line of epithelial morphology) are cultured in RPMI-1640 with 10% FBS. DU145 cells (ATCC® HTB-81™, a human cell line derived from a prostate-originating brain metastase, not detectably hormone sensitive, not expressing prostate antigen; forms adenocarcinoma grade II in nude mice) are cultured in ATCC-formulated Eagle's Minimum Essential Medium (EMEM, Catalog No. 30-2003). H446 cells (ATCC® HTB-171™, a human small cell carcinoma SC lung cancer (SCLC) cell line derived from a metastatic site) are cultured in RPMI-1640 with 10% FBS. H358 cells (ATCC® CRL-5807™, a human non-small cell lung cancer (NSCLC) cell line that expresses protein and RNA of SP-A, the major lung surfactant associated protein, and produces tumors in athymic nude mice) are cultured in RPMI-1640 Medium with 10% FBS. BxPC3 cells (ATCC® CRL-1687™, an adenocarcinoma-derived pancreatic cancer cell line that expresses pancreas cancer specific antigen and carcinoembryonic antigen and forms tumors in nude mice) are cultured in RPMI-1640 with 10% FBS.
Example 1: A cell assay is performed exposing cells cultured as described above to various drugs indicated below for 24 hours unless otherwise indicated. Each of the cell lines is treated either with a THAD (e.g. DZ-DHA-ether, MI-148-bis-DHA), or for comparison, with the DHA mono-ester “DZ-DHA”; alternatively/additionally, DZ1 and/or unconjugated DHA may serve as comparants. For each cell line, the IC50 is determined for each drug in concentrations from 0 to 100 μM. […] In the controls (not shown in the figures), the cells are exposed to DMSO (vehicle) for a final concentration that equals the highest concentration of the drug tested, to a maximum concentration less than 0.1% v/v. 4 hours before culture end/SDS addition, 10 μL MTT (3-(4,5-Dimethyl-2-thiazolyl)-2,5-diphenyl-2H-tetrazolium bromide, Sigma-Aldrich) is added to wells containing the cells. At the end of culture, 100 μl 10% SDS is added and then the plate containing the cells is placed in a 37° C. cell culture incubator for 8 hours. The absorbance density of the supernatant is read on a 96-well microplate reader at wavelength 595 nm. The results of Caki-1 and MDRV are indicated in the table below along with preliminary results for further cancer cell lines (including, e.g., C4-2B, Abi-R, PC3, 22Rv1, DU145, H358, H446, BxPC3), and the corresponding curves are shown in FIG. 2A (Caki-1) and FIG. 2B (MDVR).

In general, IC50 refers to the concentration at which inhibition is half-maximal.

Like-named read-outs stand apart in the source and are kept apart here. Bounds are passed on as bounds.

With `C[C@@H]1CC[C@H]2[C@@H](C)C(OC(=O)CCCCCN3/C(=C/C=C4\CCCC(/C=C/C5=[N+](CCCCS(=O)(=O)[O-])c6ccccc6C5(C)C)=C4Cl)C(C)(C)c4ccccc43)O[C@@H]3OC4(C)CC[C@@H]1[C@]32OO4` (stereo in doubt) [DZ3a], in assay [1], the “induced cell death after pretreatment with OATP inhibitor” value was “partially inhibited by an OATP inhibitor (TMA)”; the “induced cell death after pretreatment with Midivi or Nec-1” value was “blocked by mitochondrial fission (Midivi) and necroptosis inhibitors (Nec-1)”; the “cell death / apoptosis (Annexin V / PI)” value is “induces cell death”. Further, in assay [1] (listed as DZ-003), the “induced cell death after pretreatment with OATP inhibitor” value is recorded as “can be partially inhibited by an OATP inhibitor (TMS)”; the “induced cell death after pretreatment with Midivi or Nec-1” value was “can be blocked by mitochondrial fission (Midivi) and necroptosis inhibitor (Nec-1)”; the “cell death / apoptosis (Annexin V / PI)” value is “induced cell death”. Moreover, in assay [1] (2 h pretreatment with mevalonate (MVA)), the “induced cell death after pretreatment with mevalonate (MVA)” value is recorded as “not so much by mevalonic acid (MVA)”. The “lipid peroxidation (C11-BODIPY fluorescence)” value in assay [2] is reported as “induces lipid peroxidation”. In assay [3] (Caki-1, 24 hours, relative IC50, read-out: IC50), the IC50 is 12.3 µM. Also, in assay [3] (Caki-1, unit inferred, read-out: IC50 (FIG. 2A description)), the concentration for half-maximal inhibition (IC50) was more than 12 µM.
